Assay [1] has as its target T1, Cathepsin E (CatE) (Homo sapiens, UniProt P14091).
T1 construct: purchased BioVision, Inc. (CA, USA)
T1 sequence (P14091 54-396): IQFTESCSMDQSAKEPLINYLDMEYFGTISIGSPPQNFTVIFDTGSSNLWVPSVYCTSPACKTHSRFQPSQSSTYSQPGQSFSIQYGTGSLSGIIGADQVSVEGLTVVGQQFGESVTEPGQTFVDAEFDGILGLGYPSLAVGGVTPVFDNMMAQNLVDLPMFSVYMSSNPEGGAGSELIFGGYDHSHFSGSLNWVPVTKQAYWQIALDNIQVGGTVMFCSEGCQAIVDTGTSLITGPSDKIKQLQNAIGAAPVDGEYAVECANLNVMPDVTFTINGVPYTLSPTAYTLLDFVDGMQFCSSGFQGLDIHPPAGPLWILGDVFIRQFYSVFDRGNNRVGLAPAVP
Briefly: CatE detection in PBS with peptide aptamer-modified liquid-gated SWCNT FET. Format: binding. The note with it: aptamer on SWCNT FET via PBASE; CatE 0.1 to 1 ng/mL in 1× PBS pH 10, 10 min, 25 °C; measured in 0.0005× PBS pH 4, -0.6 V; read-out: Kd (Langmuir isotherm fit of FET response). The method, then:
The peptide aptamer was immobilized onto the SWCNT channel via the PBASE linker prior to the capture of CatE. Next, the sensor was exposed to 0.0005× PBS pH 4 for electrical measurements. […] The transfer curve of the SWCNT FET initially shifted toward the negative bias direction after the immobilization of the peptide aptamer. With increasing CatE concentrations from 0.1 to 0.6 ng/mL, the curve further shifted toward the same direction. This phenomenon is attributed to the positively charged CatE molecules at PBS pH 4 (the isoelectric point of CatE is 4.69) inducing the gradual reduction of hole carriers in the SWCNT channel via a field effect. At concentrations greater than this concentration, the shift of the transfer curve is no longer observed because all peptide aptamer probe molecules are occupied by CatE molecules. The relative decrease in the “on” current (∆I/∆Imax), where ∆Imax represents the decrease in “on” current at a saturation level due to the interaction between CatE and peptide aptamer-modified SWCNT FETs, at a top liquid-gated voltage of −0.6 V was plotted as a function of CatE concentration, as shown in Fig. 5b. […]
We measured the transfer characteristics of the fabricated sensor using a top liquid-gated scheme in 0.0005× PBS pH 4. […]

For assay [2], the target named is T1, Cathepsin E (CatE). Briefly: SPR analysis (Biacore X100) of peptide aptamer binding to Cathepsin E. The note with it: Biacore X100, CM5 chip, aptamer immobilized via C-terminal biotin-streptavidin, 1000 RU; single-cycle, CatE 858.37-1.37 ng/mL; steady-state affinity; read-out: dissociation constant (Kd). The source says: CatE is composed of an in vitro-selected peptide aptamer (24 amino acids comprising two peptide blocks of 12- and 8-amino acids paired by a 4-amino acid linker) and a short alpha-strand peptide scaffold (7-amino acids). A Biacore X100 instrument was used to characterize the binding features of the peptide aptamer to CatE. A free N-terminal end of the peptide aptamer is necessary for its correct folding as a basis for the formation of the binding complex with the target. Therefore, the C-terminal end of the peptide aptamer with biotin-streptavidin chemistry was immobilized onto a CM5 sensor chip, and then CatE was injected as the analyte across this surface for interaction with the peptide aptamer. […] The dissociation constant (Kd) for the CatE was calculated as 0.954 ± 0.067 nM.
Figure 3 Peptide aptamer characterization. […] The data for the steady-state affinity binding plot were calculated from the end of the association phases against the analyte concentration. […]
A novel peptide aptamer that specifically recognizes CatE was engineered via systemic in vitro evolution. […] A steady-state affinity binding plot was calculated from the end of the association phases against the analyte concentration.

Residues, ends and D or L forms follow the SMILES beside them.

For `CC[C@H](C)[C@H](NC(=O)CNC(=O)CNC(=O)[C@H](CS)NC(=O)[C@@H](N)CO)C(=O)N[C@H](C(=O)N[C@H](C(=O)N[C@H](C(=O)N[C@@H](CO)C(=O)N[C@@H](CS)C(=O)N[C@H](C(=O)N[C@@H](C)C(=O)N[C@H](C(=O)N[C@H](C(=O)N[C@@H](CO)C(=O)N[C@@H](CC(C)C)C(=O)N[C@H](C(=O)N1CCC[C@H]1C(=O)NCC(=O)N[C@@H](CCCNC(=N)N)C(=O)N[C@H](C(=O)NCC(=O)N[C@@H](CS)C(=O)N[C@H](C(=O)N[C@@H](CCCNC(=N)N)C(=O)N[C@@H](C)C(=O)N[C@@H](CCCCN)C(=O)N[C@@H](C)C(=O)N[C@@H](C)C(=O)N[C@@H](C)C(=O)N[C@@H](CCCCN)C(=O)O)[C@@H](C)CC)[C@@H](C)CC)[C@@H](C)CC)[C@@H](C)CC)C(C)C)[C@@H](C)CC)[C@@H](C)CC)[C@@H](C)CC)[C@@H](C)CC` [peptide aptamer] (H-SCGGIIIISCIAVISLIPGRIGCIRAKAAAK-OH), the equilibrium dissociation constant (Kd) in assay [1] was 0.00277 nM; in assay [2], 0.954 nM.

What is called Kd is the concentration at which binding is half-saturated.

(Values after publication PMC5738443, “Peptide aptamer-modified single-walled carbon nanotube-based transistors for high-performance biosensors” (Scientific Reports, 2017).)
